Laboratory results: patent US20250089715A1, “INSECTICIDAL MIXTURES” (ADAMA MAKHTESHIM LTD., priority 2021, published 2025)

Legend:
[1] = tested on: Helicoverpa armigera (Heliothis) larvae; test: Leaf-dip bioassay on Helicoverpa armigera larvae (cotton leaves); format: in vivo; details: for Lethal concentrations for Helicoverpa armigera (Heliothis), LD50 / Lethal concentrations for Helicoverpa armigera (Heliothis), LD90: third instar larvae, treated cotton leaves, probit analysis
Procedure: (§1) The laboratory susceptible strain of S. littoralis is collected in 2000 from a cotton field in Bet She'an area ([…] part of Israel) and is reared on castor bean (Ricinus communis) leaves under standard rearing conditions of 27° C., 55% RH and 14 h photoperiod. Field strain of H. armigera was collected in June 2020 from cotton fields near Rehovot area and was reared on premixed diet (Ward's Stonefly Heliothis Diet, USA) under standard rearing conditions of 27° C., 55% RH and 14 h photoperiod.
Tender leaves of cotton were dipped in aqueous concentrations of a formulation or in water as control. After 15 seconds of dipping, the cotton leaves were then allowed to air dry for 2 h. Afterwards, Heliothis larvae (third instars, 8-10 mm), reared in a controlled growth room (27±2° C. and 50% RH with a photoperiod of 14:10 h light:dark) were put inside Petri dishes on treated cotton leaves; in addition, filter papers were also added to the dishes (to avoid too much moisture). The experiments were done on 5-10 larvae for each concentration and were repeated three times, on separate days.
Mortality of the larvae in comparison with the control was determined, two and five-six days after exposure to the formulations.
(§2) To obtain a concentration-mortality line, at least three concentrations were used for most of the bioassays. LC values were estimated by probit analysis (POLO, 1987). Control mortality was corrected using Abbott's (1925) formula.
(§3) Firstly, all the compounds were assessed alone against the larvae, and then, binary mixtures of chlorantraniliprole with tau-fluvalinate were evaluated in different ratios.

[2] = tested on: Spodoptera littoralis larvae; test: Leaf-dip feeding bioassay on Spodoptera littoralis larvae (castor bean leaves); format: in vivo; details: for Lethal concentrations for Spodoptera littoralis, LD50 / Lethal concentrations for Spodoptera littoralis, LD90: early 3rd-instar larvae, treated castor bean leaves, probit analysis
Procedure: as §1
Assays with S. littoralis larvae were done as described by Ishaaya et al. (1996, 2003). Castor bean leaves were dipped in various concentrations of the test compounds (and water as control), and were air dried for 2 h under controlled room conditions. The treated leaves were transferred into foam plastic (“Kalkar”) cups containing a layer of sawdust to avoid humidity. The treated leaves were offered to early 3rd-instar (12±1 mg) for 4-day feeding of the laboratory susceptible strain and for additional 4 days on untreated leaves. Larval mortality was determined and recorded on day 4 and 8 or as indicated, and larval weight gain (LWG) was determined on day 4 and 8 or as indicated.
as §2, §3

## CNC(=O)c1cc(Cl)cc(C)c1NC(=O)c1cc(Br)nn1-c1ncccc1Cl [Chlorantraniliprole]
[1]; Helicoverpa armigera, 0.05 ppm, alone, read-out: H. armigera mortality, %
  mortality at 0.05 ppm: 18%
[1]; Helicoverpa armigera, 0.1 ppm, alone, read-out: H. armigera mortality, %
  mortality at 0.1 ppm: 40%
[1]
  Lethal concentrations for Helicoverpa armigera (Heliothis), LD50: LD50 ≥ 0.1 ppm
  Lethal concentrations for Helicoverpa armigera (Heliothis), LD90: LD90 ≥ 1 ppm
[2]; Spodoptera littoralis, in Ricinus communis, 0.05 ppm, alone, read-out: S. littoralis mortality, %
  mortality at 0.05 ppm: 27%
[2]; Spodoptera littoralis, in Ricinus communis, 0.1 ppm, alone, read-out: S. littoralis mortality, %
  mortality at 0.1 ppm: 48%
[2]
  Lethal concentrations for Spodoptera littoralis, LD50: LD50 = 0.1 ppm
  Lethal concentrations for Spodoptera littoralis, LD90: LD90 = 1 ppm

## CC(C)[C@@H](Nc1ccc(C(F)(F)F)cc1Cl)C(=O)OC(C#N)c1cccc(Oc2ccccc2)c1 (stereo partly shown) [Tau-fluvalinate]
[1]; Helicoverpa armigera, 50 ppm, alone, read-out: H. armigera mortality, %
  mortality at 50 ppm: 30%
[1]; Helicoverpa armigera, 100 ppm, alone, read-out: H. armigera mortality, %
  mortality at 100 ppm: 45%
[1]
  Lethal concentrations for Helicoverpa armigera (Heliothis), LD50: LD50 ≥ 100 ppm
  Lethal concentrations for Helicoverpa armigera (Heliothis), LD90: LD90 ≥ 500 ppm
[2]; Spodoptera littoralis, in Ricinus communis, 50 ppm, alone, read-out: S. littoralis mortality, %
  mortality at 50 ppm: 20%
[2]; Spodoptera littoralis, in Ricinus communis, 100 ppm, alone, read-out: S. littoralis mortality, %
  mortality at 100 ppm: 40%
[2]
  Lethal concentrations for Spodoptera littoralis, LD50: LD50 ≥ 100 ppm
  Lethal concentrations for Spodoptera littoralis, LD90: LD90 ≥ 500 ppm
